Test [1] concerns the target T1, p75^NTR receptors (PC12 cells) (Rattus norvegicus, UniProt P07174).
T1 construct: endogenous in cells; host or cells: PC12 cells
T1 sequence (P07174 30-425): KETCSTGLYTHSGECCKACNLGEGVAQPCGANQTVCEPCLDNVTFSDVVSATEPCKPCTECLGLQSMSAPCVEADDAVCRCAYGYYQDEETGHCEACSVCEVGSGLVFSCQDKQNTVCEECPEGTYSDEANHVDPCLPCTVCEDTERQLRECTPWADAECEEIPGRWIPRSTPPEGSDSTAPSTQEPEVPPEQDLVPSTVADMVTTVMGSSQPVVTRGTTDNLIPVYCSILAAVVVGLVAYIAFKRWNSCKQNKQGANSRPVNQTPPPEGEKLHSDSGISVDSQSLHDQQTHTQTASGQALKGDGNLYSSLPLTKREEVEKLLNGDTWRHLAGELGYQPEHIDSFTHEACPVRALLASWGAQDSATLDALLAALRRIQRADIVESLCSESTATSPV
T1 sequence (P23560 129-247 partner): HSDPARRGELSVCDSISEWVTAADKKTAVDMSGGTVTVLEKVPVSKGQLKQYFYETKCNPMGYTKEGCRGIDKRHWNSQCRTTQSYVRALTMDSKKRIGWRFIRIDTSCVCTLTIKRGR
The test can be described thus: Basic screening assay: binding of 125I-BDNF to PC12 cells. Conditions: read-out: BDNF Activity % Maximal Binding. On the procedure: (§1) The compounds were screened for effects on binding of ^125I-BDNF or ^125I-NGF to PC12 cells (p75^NTR receptors), and those that inhibited binding were further tested to determine the EC50 for this inhibition.
(§2) PC12 cells were cultured and prepared for binding assays as described in Example 1.
(§3) Lypophilized Peprotech human recombinant BDNF (Cedarlane Laboratories, Toronto, Canada, cat. # PE 450-02-10) was reconstituted under sterile conditions to 3.5 μM in sterile HKR/1%BSA, and either used immediately or stored in aliquots of 20 μl at −80° C. Immediately prior to use, a 15 nM (30×) solution of ^125I-BDNF or ^125I-NGF was prepared in HKR buffer, and was used at 0.5 nM final concentration.
(§4) Test Compounds were dissolved to 10 mM in DMSO, and those that were not initially soluble were warmed to 40-50° C. and vortexed. Those compounds that were still not in solution were reported as such. Compounds were then stored in this form at −20° C. until use. Immediately before experiments, 100 mM compounds were diluted to 10 mM in DMSO (1:10), followed by a further dilution to 1 mM (1:10) with distilled water, and a further dilution to 500 μM (1:1) with HKR.
(§5) Assays to determine maximum binding (Bmax), non-specific binding (NSB), and binding in the presence of each test compound (e.g., x, y) were performed at least in duplicate. In a total volume of 300 μL, 4×10^6 PC12 cells were incubated, rotating for 2 h at 4° C. with the following:
(§6) At the conclusion of the binding reaction, 100 μL aliquots of the reaction mixtures were carefully layered over 200 μL of a 10% glycerol solution in a 0.4 mL tube, and subjected to centrifugation in a microcentrifuge for 2 minutes at half maximum speed. The cell pellets containing the bound ^125I-BDNF or ^125I-NGF were then measured using a gamma counter. The mean values of the replicates were then calculated to determine the value for maximum binding (Bmax) and nonspecific binding (NSB), and binding in the presence of test compound at 50 μM (Bx). Specific binding (SB) was measured by subtracting the NSB from the Bmax.

Test [2] has as its system p75^NTR receptors (PC12 cells). The test can be described thus: Basic screening assay: binding of 125I-NGF to PC12 cells. Conditions: Table 1; test compound 50 μM; 0.5 nM 125I-NGF; PC12 cells; 2 h at 4° C.; specific binding as percent of control. As for the experimental part: as §1, §2
Lyophilized Serotec mouse 2.5S NGF (Cedarlane Laboratories, Toronto, Canada, cat. # PMP 04Z) was reconstituted under sterile conditions to 1 mg/mL (38 μM) in sterile 0.2% acetic acid, and 100 μL or 50 μL aliquots were stored frozen at −80° C.
as §3, §4, §5
as §6, with “Bmax. Specific binding in the presence of the test compound (SBx) was determined by subtracting the NSB from the Bx for each test compound; and each SBx was divided by SB and multiplied by 100 to give the specific binding in the presence of the compound as a percent of control specific binding.” for “Bmax.”

[3] abbreviates: Table 1, test compound 50 μM, 0.5 nM 125I-BDNF, PC12 cells, 2 h at 4° C., specific binding as percent of control.

Like-named read-outs stand apart in the source and are kept apart here.

As for `Cc1ccc(N2NC(=O)C(=Cc3ccc(-c4ccc([N+](=O)[O-])cc4Cl)o3)C2=O)cc1C` [Compound 23, 4-[5-(2-Chloro-4-nitrophenyl)furan-2-ylmethylene]-1-(3,4-dimethylphenyl)-pyrazolidine-3,5-dione], the activity at 50 µM in test [1] (setting [3]) fell in the range of 0 to 10%. Besides, in test [2], the “NGF Activity % Maximal Binding” value is “* (50 < *)”.

In the case of `CCOC(=O)CN1C(=O)S/C(=C/c2ccc(-c3ccc(C(=O)O)c(Cl)c3)o2)C1=O` [Compound 24, 2-Chloro-4-[5-(3-ethoxycarbonylmethyl-2,4-dioxo-thiazolidin-5-ylidenemethyl)furan-2-yl]benzoic acid], the activity at 50 µM in test [1] (setting [3]) is 0 to 10%. The “NGF Activity % Maximal Binding” value in test [2] was “* (50 < *)”.

On to `Cc1cc(-c2ccc(C=C3C(=O)NC(=S)NC3=O)o2)cc([N+](=O)[O-])c1C` [Compound 25, 5-[5-(3,4-Dimethyl-5-nitrophenyl)furan-2-ylmethylene]-2-thioxo-dihydro-pyrimidine-4,6-dione], for which the activity at 50 µM in test [1] was 0 to 10%. The “NGF Activity % Maximal Binding” value in test [2] is “* (50 < *)”.

Consider `O=C1NC(=O)C(=Cc2ccc(-c3ccc([N+](=O)[O-])cc3)o2)C(=O)N1` [Compound 26, 5-[5-(4-Nitrophenyl)furan-2-ylmethylene]-pyrimidine-2,4,6-trione], for which the activity at 50 µM in test [1] was 0 to 10%. Further, in test [2], the “NGF Activity % Maximal Binding” value is recorded as “* (50 < *)”.

For the compound `O=C(O)c1ccc(-c2ccc(/C=C3/NC(=O)N(Cc4ccccc4F)C3=O)o2)cc1Cl` [Compound 27, 2-Chloro-4-{5-[1-(2-fluorobenzyl)-2,5-dioxo-imidazolidin-4-ylidenemethyl]furan-2-yl}benzoic acid], the activity at 50 µM in test [1] (setting [3]) is 0 to 10%. Moreover, the “NGF Activity % Maximal Binding” value in test [2] was “* (50 < *)”.

For the compound `O=C(O)c1cc(-c2ccc(/C=C3\NC(=O)N(Cc4ccc(F)cc4)C3=O)o2)ccc1Cl` [Compound 28, 2-Chloro-5-{5-[1-(4-fluorobenzyl)-2,5-dioxo-imidazolidin-4-ylidenemethyl]furan-2-yl}benzoic acid], the activity at 50 µM in test [1] (setting [3]) was in the range of 10 to 20%. Also, the “NGF Activity % Maximal Binding” value in test [2] is given as “* (50 < *)”.

`COC(=O)C(C)N1C(=O)S/C(=C/c2ccc(-c3cc(C(=O)O)ccc3C)o2)C1=O` (stereo not shown) [Compound 29, 3-{5-[3-(1-Methoxycarbonyl-ethyl)-2,4-dioxo-thiazolidin-5-ylidenemethyl]furan-2-yl}-4-methylbenzoic acid]: in test [1] (setting [3]), the activity at 50 µM lay within 10 to 20%. The “NGF Activity % Maximal Binding” value in test [2] is recorded as “* (50 < *)”.

With `COc1ccc(-c2ccc(C=C3C(=O)N(C)C(=O)N(C)C3=O)o2)cc1[N+](=O)[O-]` [Compound 31, 5-[5-(4-Methoxy-3-nitrophenyl)furan-2-ylmethylene]-1,3-dimethyl-pyrimidine-2,4,6-trione], the activity at 50 µM in test [1] lay within 10 to 20%. Also, the “NGF Activity % Maximal Binding” value in test [2] is “* (50 < *)”.

In the case of `COC(=O)c1ccc(-c2ccc(/C=C3\C(=O)NC(=O)N(Cc4ccccc4)C3=O)o2)cc1` [Compound 32, 4-[5-(1-benzyl-2,4,6-trioxo-tetrahydro-pyrimidin-5-ylidenemethyl)furan-2-yl]benzoic acid methyl ester], the activity at 50 µM in test [1] lay in the range of 10 to 20%. For the same compound, the “NGF Activity % Maximal Binding” value in test [2] is given as “* (50 < *)”.

For the compound `O=C1NC(=O)/C(=C\c2ccc(-c3ccc([N+](=O)[O-])cc3Cl)o2)S1` [Compound 33, 5-[5-(2-Chloro-4-nitrophenyl)furan-2-ylmethylene]-thiazolidine-2,4-dione], in test [1] (setting [3]), the activity at 50 µM lay in the range of 10 to 20%. For the same compound, the “NGF Activity % Maximal Binding” value in test [2] is “* (50 < *)”.

For the compound `COCCN1C(=O)C(=Cc2ccc(-c3cccc([N+](=O)[O-])c3)o2)SC1=S` [Compound 34, 3-(2-Methoxy-ethyl)-5-[5-(3-nitrophenyl)furan-2-ylmethylene]-2-thioxo-thiazolidin-4-one], the activity at 50 µM in test [1] (setting [3]) fell in the range of 10 to 20%. Further, the “NGF Activity % Maximal Binding” value in test [2] was “* (50 < *)”.

As to `O=C(O)c1ccc(-c2ccc(/C=C3/NC(=O)N(c4cccc(Cl)c4)C3=O)o2)cc1Cl` [Compound 36, 2-Chloro-4-{5-[1-(3-chlorophenyl)-2,5-dioxo-imidazolidin-4-ylidenemethyl]furan-2-yl}benzoic acid], the activity at 50 µM in test [1] (setting [3]) is 10 to 20%. In addition, the “NGF Activity % Maximal Binding” value in test [2] was “* (50 < *)”.

Turning to `COc1ccc(CN2C(=O)/C(=C\c3ccc(-c4ccc(S(N)(=O)=O)cc4)o3)SC2=S)cc1` [Compound 37, 4-{5-[3-(4-Methoxybenzyl)-4-oxo-2-thioxo-thiazolidin-5-ylidenemethyl]furan-2-yl}benzenesulfonamide], the activity at 50 µM in test [1] (setting [3]) is 20 to 30%. Also, in test [2], the “NGF Activity % Maximal Binding” value was “* (50 < *)”.

Regarding `O=C(O)CN1C(=O)C(=Cc2ccc(-c3ccc([N+](=O)[O-])cc3)o2)SC1=S` [Compound 38, {5-[5-(4-Nitrophenyl)furan-2-ylmethylene]-4-oxo-2-thioxo-thiazolidin-3-yl}-acetic acid], the activity at 50 µM in test [1] (setting [3]) lay within 20 to 30%. In addition, the “NGF Activity % Maximal Binding” value in test [2] was “* (50 < *)”.

With `CN1C(=O)NC(=O)C(=Cc2ccc(-c3ccc([N+](=O)[O-])cc3)o2)C1=O` [Compound 39, 1-Methyl-5-[5-(4-nitrophenyl)furan-2-ylmethylene]-pyrimidine-2,4,6-trione], the activity at 50 µM in test [1] lay in the range of 20 to 30%. In test [2], the “NGF Activity % Maximal Binding” value is recorded as “* (50 < *)”.

In the case of `Cc1cc([N+](=O)[O-])ccc1-c1ccc(C=C2SC(=S)N(CC(=O)O)C2=O)o1` [Compound 40, {5-[5-(2-Methyl-4-nitrophenyl)furan-2-ylmethylene]-4-oxo-2-thioxo-thiazolidin-3-yl}-acetic acid], the activity at 50 µM in test [1] (setting [3]) was in the range of 20 to 30%. Besides, in test [2], the “NGF Activity % Maximal Binding” value is “* (50 < *)”.

Turning to `Cc1cc(C(=O)O)ccc1-c1ccc(/C=C2/NC(=O)NC2=O)o1` [Compound 41, 4-[5-(2,5-Dioxo-imidazolidin-4-ylidenemethyl)furan-2-yl]-3-methylbenzoic acid], the activity at 50 µM in test [1] (setting [3]) was 20 to 30%. Besides, the “NGF Activity % Maximal Binding” value in test [2] is “* (50 < *)”.

Consider `Cc1cccc(N2NC(=O)/C(=C/c3ccc(-c4ccc(Cl)c([N+](=O)[O-])c4)o3)C2=O)c1` [Compound 44, 4-[5-(4-Chloro-3-nitrophenyl)furan-2-ylmethylene]-1-m-tolyl-pyrazolidine-3,5-dione], for which the activity at 50 µM in test [1] (setting [3]) was 30 to 40%. In addition, the “NGF Activity % Maximal Binding” value in test [2] was “* (50 < *)”.

In the case of `CN1C(=O)/C(=C/c2ccc(-c3ccc(S(N)(=O)=O)cc3)o2)SC1=S` [Compound 45, 4-[5-(3-Methyl-4-oxo-2-thioxo-thiazolidin-5-ylidenemethyl)furan-2-yl]benzenesulfonamide], in test [1] (setting [3]), the activity at 50 µM lay within 30 to 40%. The “NGF Activity % Maximal Binding” value in test [2] is given as “* (50 < *)”.

Turning to `COC(=O)c1ccc(-c2ccc(/C=C3/NC(=O)N(Cc4ccc(F)cc4)C3=O)o2)c(C)c1` [Compound 46, 4-{5-[1-(4-Fluorobenzyl)-2,5-dioxo-imidazolidin-4-ylidenemethyl]furan-2-yl}-3-methylbenzoic acid methyl ester], in test [1] (setting [3]), the activity at 50 µM is 30 to 40%. Besides, the “NGF Activity % Maximal Binding” value in test [2] is on record as “* (50 < *)”.
